Experimental findings from ChEMBL document CHEMBL5390320, “Discovery of a Novel Benzodiazepine Series of Cbl-b Inhibitors for the Enhancement of Antitumor Immunity” (ACS Med Chem Lett, 2023) are described below.

A value given as a limit tells only on which side of the number the result lay.

For series [1], the target named is T1, E3 ubiquitin-protein ligase CBL-B (Homo sapiens, UniProt Q13191). The series can be described thus: Displacement of FAM-labeled probe from recombinant biotinylated Cbl-b (unknown origin) expressed in Escherichia coli BL21(DE3) Tuner cells by TR-FRET assay.
The target of series [2] is T1, E3 ubiquitin-protein ligase CBL-B. Description: Inhibition of Cbl-b in cryo-preserved human CD3-positive T cells assessed as increase in IL-2 production preincubated for 1 hr followed by alpha-CD3 coated stimulation for 24 hrs by flow cytometry method. In kind it is cell-based, CD3-positive T cell.
For series [3], the target named is T2, Cholecystokinin receptor type A (Homo sapiens, UniProt P32238).
T2 sequence (P32238 whole entry): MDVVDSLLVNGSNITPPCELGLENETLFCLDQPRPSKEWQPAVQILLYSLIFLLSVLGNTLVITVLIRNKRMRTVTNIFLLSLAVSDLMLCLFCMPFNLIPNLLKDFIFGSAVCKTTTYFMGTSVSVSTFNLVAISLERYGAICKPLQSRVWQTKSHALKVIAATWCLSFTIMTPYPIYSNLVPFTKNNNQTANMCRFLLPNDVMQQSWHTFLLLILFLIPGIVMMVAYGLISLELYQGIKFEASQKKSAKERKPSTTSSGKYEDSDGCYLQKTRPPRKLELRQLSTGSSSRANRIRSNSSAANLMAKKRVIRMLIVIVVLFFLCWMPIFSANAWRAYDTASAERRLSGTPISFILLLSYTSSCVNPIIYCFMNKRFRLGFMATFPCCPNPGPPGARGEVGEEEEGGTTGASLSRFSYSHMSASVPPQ
Description: Displacement of […] from human CCKA receptor expressed in CHO cell membrane incubated for 60 mins by scintillation counter method. Type of series: toxicity, cell membranes.

Series [4] in a line: Lipophilicity, log D of the compound in octanol and sodium phosphate buffer at pH 7.4 incubated for 3 hrs under shaking condition by shake flask method based LC-MS/MS analysis. Type of series: physicochemical.
Series [5] concerns the target T1, E3 ubiquitin-protein ligase CBL-B. The series can be described thus: Binding affinity to avidin-biotinylated Cbl-b at (36 to 427 residues) (unknown origin) assessed as dissociation constant by SPR analysis.
Series [6] has the same target. The series can be described thus: Inhibition of recombinant Cbl-b (unknown origin) ubiquitination incubated for 60 mins in presence of ATP by TR-FRET assay.
For series [7] the target is unchanged. The series can be described thus: Inhibition of recombinant Cbl-b (unknown origin) mediated ZAP70 ubiquitination incubated for 60 mins by TR-FRET assay.

T1 sequence (Q13191 whole entry): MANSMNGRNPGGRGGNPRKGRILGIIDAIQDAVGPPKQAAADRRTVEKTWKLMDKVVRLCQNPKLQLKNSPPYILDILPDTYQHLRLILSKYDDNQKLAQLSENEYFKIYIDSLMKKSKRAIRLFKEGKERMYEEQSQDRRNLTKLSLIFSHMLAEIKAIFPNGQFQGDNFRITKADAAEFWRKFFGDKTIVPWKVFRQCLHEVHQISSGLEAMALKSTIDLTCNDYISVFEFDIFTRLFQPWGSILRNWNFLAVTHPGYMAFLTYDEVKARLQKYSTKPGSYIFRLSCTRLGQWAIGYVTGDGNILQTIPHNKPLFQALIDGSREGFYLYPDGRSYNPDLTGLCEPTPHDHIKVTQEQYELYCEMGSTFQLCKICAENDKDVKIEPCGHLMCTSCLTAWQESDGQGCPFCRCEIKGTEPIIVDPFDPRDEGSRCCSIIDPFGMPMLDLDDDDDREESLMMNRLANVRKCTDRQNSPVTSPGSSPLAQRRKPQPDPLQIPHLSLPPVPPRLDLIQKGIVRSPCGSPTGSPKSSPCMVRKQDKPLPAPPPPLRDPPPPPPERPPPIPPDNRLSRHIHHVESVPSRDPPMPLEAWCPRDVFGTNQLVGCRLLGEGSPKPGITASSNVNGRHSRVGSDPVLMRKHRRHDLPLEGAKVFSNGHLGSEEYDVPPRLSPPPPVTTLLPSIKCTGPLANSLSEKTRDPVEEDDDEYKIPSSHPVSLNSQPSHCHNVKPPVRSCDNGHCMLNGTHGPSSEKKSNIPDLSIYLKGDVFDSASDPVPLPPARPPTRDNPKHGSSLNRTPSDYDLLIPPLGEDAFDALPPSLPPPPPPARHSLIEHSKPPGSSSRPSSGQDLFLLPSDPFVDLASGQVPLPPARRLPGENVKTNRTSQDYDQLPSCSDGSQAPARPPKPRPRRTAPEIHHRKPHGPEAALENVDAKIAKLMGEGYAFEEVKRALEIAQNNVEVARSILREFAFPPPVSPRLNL

As to `COCCNC(=O)c1ccc2c(c1)NC(=O)[C@@H](NC(=O)c1ccccc1CN1CCO[C@@H](C)C1)N=C2c1ccccc1`, in series [1], the IC50 was determined as 13 nM. The concentration giving a half-maximal response (EC50) in series [2] was determined as 2610 nM. The compound also returned a Ki in series [3] of 24.3 µM. In series [4], this compound displayed a logD at 3 h of 3.7.
On to `O=C(N[C@H]1N=C(c2ccccc2)c2ccccc2NC1=O)c1ccccc1CN1CCOCC1`, for which the half-inhibitory concentration (IC50) in series [1] turned out to be 94 nM. The log distribution coefficient (logD) at 3 h in series [4] came out at 3.9.
As for `C[C@H]1CN(Cc2ccccc2C(=O)N[C@H]2N=C(c3ccccc3)c3ccc(C(=O)N4CCN(C)C(=O)C4)cc3NC2=O)CCO1`, in series [1], the concentration for half-maximal inhibition (IC50) was determined as 13 nM. Besides, in series [2], the EC50 is 1650 nM. Further, the Ki in series [3] is more than 100 µM. For the same compound, in series [4], the logD at 3 h came to 2.5.
Turning to `C[C@H]1CN(Cc2ccccc2C(=O)N[C@H]2N=C(c3ccccc3)c3ccccc3NC2=O)CCO1`, in series [1], the IC50 amounted to 13 nM. Besides, the EC50 in series [2] was found to be 14000 nM. Besides, the Ki in series [3] was 3.72 µM. Further, the pH-dependent lipophilicity (logD) at 3 h in series [4] was 4.1.
For `C[C@@H]1CN(Cc2ccccc2C(=O)N[C@H]2N=C(c3ccccc3)c3ccccc3NC2=O)CCO1`, the IC50 in series [1] was determined as 10 nM. Also, the EC50 in series [2] is more than 30000 nM. This compound also registered a Ki in series [3] of 2.63 µM. Besides, the logD at 3 h in series [4] is 4.1.
Take `O=C(N[C@@H]1N=C(c2ccccc2)c2ccccc2NC1=O)c1ccccc1CN1CCOCC1`: in series [1], the IC50 was 8000 nM. In series [4], the log distribution coefficient (logD) at 3 h was found to be 3.9.
Take `C[C@H]1CCCN(Cc2cc3c(c(C(F)(F)F)c2)CN(c2cccc([C@]4(c5nncn5C)C[C@@H](C)C4)c2)C3=O)C1`: the half-maximal inhibitory concentration (IC50) in series [1] amounted to 9 nM. Further, in series [5], the Kd was 3 nM.
`C[C@H]1CN(Cc2ccccc2C(=O)N[C@H]2N=C(c3ccccc3)c3ccncc3NC2=O)CCO1`: the 50% inhibitory concentration (IC50) is 15 nM in series [1], 50.5 µM in series [6] and 37.2 µM in series [7]. Moreover, in series [2], the concentration giving a half-maximal response (EC50) was determined as 410 nM. For the same compound, the Ki in series [3] is more than 100 µM. Further, the logD at 3 h in series [4] stood at 3.3.
Turning to `C[C@@H]1CN(Cc2ccccc2C(=O)NC2N=C(c3ccccc3)c3ccccc3NC2=O)C[C@H](C)O1` (mixture of isomers), in series [1], the half-inhibitory concentration (IC50) turned out to be 1800 nM. This compound also returned a log distribution coefficient (logD) at 3 h in series [4] of 4.3.
The matching figures for `C[C@@H]1CN(Cc2ccccc2C(=O)NC2N=C(c3ccccc3)c3ccccc3NC2=O)CCO1` (mixture of isomers): 31 nM and 4.1.
For `C[C@H]1COCCN1Cc1ccccc1C(=O)NC1N=C(c2ccccc2)c2ccccc2NC1=O` (mixture of isomers) the same measures were 1900 nM and 4.
Consider `C[C@H]1CN(Cc2ccccc2C(=O)NC2N=C(c3ccccc3)c3ccccc3NC2=O)CCO1` (mixture of isomers), for which the half-maximal inhibitory concentration (IC50) in series [1] is 26 nM. The compound also came in with a logD at 3 h in series [4] of 4.2.
Consider `C[C@@H]1COCCN1Cc1ccccc1C(=O)NC1N=C(c2ccccc2)c2ccccc2NC1=O` (mixture of isomers), for which the half-inhibitory concentration (IC50) in series [1] is 4800 nM. For the same compound, the log distribution coefficient (logD) at 3 h in series [4] was 3.9.
With `O=C(NC1N=C(c2ccccc2)c2ccccc2NC1=O)c1ccccc1CN1CCOCC1` (racemic), the IC50 in series [1] is 210 nM. In series [5], the dissociation constant (Kd) amounted to 400 nM. The compound also displayed a pH-dependent lipophilicity (logD) at 3 h in series [4] of 3.8.
Take `O=C(NC1N=C(c2ccccc2)c2ccccc2NC1=O)c1ccoc1CN1CCOCC1` (racemic): the concentration for half-maximal inhibition (IC50) in series [1] was 1500 nM. In series [4], the pH-dependent lipophilicity (logD) at 3 h worked out at 3.1.
For the compound `O=C(NC1N=C(c2ccccc2)c2ccccc2NC1=O)c1ccccc1N1CCOCC1` (racemic), in series [1], the half-maximal inhibitory concentration (IC50) was more than 100000 nM.
On to `O=C(NC1N=C(c2ccc[nH]c2=O)c2ccccc2NC1=O)c1ccccc1CN1CCOCC1` (racemic), for which, in series [1], the IC50 worked out at 20000 nM. In series [4], this compound registered a logD at 3 h of 1.2.
For `O=C(NC1N=C(c2ccccc2)c2ccccc2NC1=O)c1ccccc1CN1CCn2nccc2C1` (racemic), the half-inhibitory concentration (IC50) in series [1] was 710 nM. Further, the logD at 3 h in series [4] turned out to be 3.9.
For `O=C(NC1N=C(c2ccccc2)c2ccccc2NC1=O)c1cnccc1CN1CCOCC1` (racemic) the same measures were 1300 nM and 2.7.
The matching figures for `O=C(NC1N=C(c2ccccc2)c2ccccc2NC1=O)c1sccc1CN1CCOCC1` (racemic): 360 nM and 3.3.
For `Cn1ncc2c1CN(Cc1ccccc1C(=O)NC1N=C(c3ccccc3)c3ccccc3NC1=O)C2` (racemic), in series [1], the 50% inhibitory concentration (IC50) is 350 nM. In series [4], this compound yielded a logD at 3 h of 3.8.
Regarding `O=C(NC1N=C(c2ccccc2)c2ccccc2NC1=O)c1ccccc1CN1CCCCC1` (racemic), the IC50 in series [1] is more than 100000 nM.
Take `CC1(C)CN(Cc2ccccc2C(=O)NC2N=C(c3ccccc3)c3ccccc3NC2=O)CCO1` (racemic): the IC50 in series [1] worked out at 3900 nM. Besides, in series [4], the pH-dependent lipophilicity (logD) at 3 h came out at 4.3.
Turning to `O=C(NC1N=C(c2cc[nH]c(=O)c2)c2ccccc2NC1=O)c1ccccc1CN1CCOCC1` (racemic), the half-inhibitory concentration (IC50) in series [1] came out at 11000 nM. In series [4], this compound displayed a logD at 3 h of 1.7.
For `O=C(NC1N=C(c2ccncc2)c2ccccc2NC1=O)c1ccccc1CN1CCOCC1` (racemic) the same measures were 2000 nM and 2.6.
For `O=C(NC1N=C(c2ccccc2)c2ccccc2NC1=O)c1ccccc1CN1CCn2nncc2C1` (racemic) the same measures were 300 nM and 2.9.
